Here are results for 1 molecule from article PMC10423218, “Molecular mechanism underlying regulation of Arabidopsis CLCa transporter by nucleotides and phospholipids” (Nature Communications, 2023).

One experiment deals with T1, AtCLCa ΔN44 mutant (Arabidopsis thaliana, UniProt P92941).
T1 construct: gene CLC-A; N-terminal 44-residue deletion, beta-hairpin retained, homodimer, pKH3 vector in HEK293T
T1 sequence (P92941 45-775): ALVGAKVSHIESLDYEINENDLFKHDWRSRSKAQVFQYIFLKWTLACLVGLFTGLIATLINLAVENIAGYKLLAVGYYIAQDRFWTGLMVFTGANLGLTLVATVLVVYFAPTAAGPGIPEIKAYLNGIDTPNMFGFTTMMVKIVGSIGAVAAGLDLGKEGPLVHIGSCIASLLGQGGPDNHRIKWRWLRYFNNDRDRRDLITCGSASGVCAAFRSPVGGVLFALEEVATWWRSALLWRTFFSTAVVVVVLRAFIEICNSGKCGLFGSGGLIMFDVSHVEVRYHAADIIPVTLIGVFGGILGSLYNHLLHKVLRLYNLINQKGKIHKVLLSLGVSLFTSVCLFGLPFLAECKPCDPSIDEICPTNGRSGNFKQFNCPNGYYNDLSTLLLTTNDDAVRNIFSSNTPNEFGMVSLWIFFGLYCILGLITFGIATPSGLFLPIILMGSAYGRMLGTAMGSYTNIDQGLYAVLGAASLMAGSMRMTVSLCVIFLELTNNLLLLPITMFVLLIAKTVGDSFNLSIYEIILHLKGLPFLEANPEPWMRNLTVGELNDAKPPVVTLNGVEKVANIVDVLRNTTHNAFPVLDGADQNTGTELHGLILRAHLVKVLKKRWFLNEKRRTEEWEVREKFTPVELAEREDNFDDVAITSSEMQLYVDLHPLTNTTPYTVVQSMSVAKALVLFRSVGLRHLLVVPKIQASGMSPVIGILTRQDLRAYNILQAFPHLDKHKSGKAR
Kind of experiment: whole-cell patch clamp, HEK293T. The format is cell-based. Conditions: 5 mM in pipette (cytosolic side); nitrate bath; pH 7.4. (In general: The patch-clamp technique gives a direct electrical read-out from membranes.)

For another experiment, the target named is T2, AtCLCa (Arabidopsis thaliana, UniProt P92941, E55A/S56A).
T2 construct: gene CLC-A; full-length, homodimer; structures: Pichia pastoris GS115, C-terminal GFP-6xHis tag cut by TEV, MSP1D1 nanodiscs; patch clamp: pKH3 vector in HEK293T
T2 sequence (P92941 1-775 E55A/S56A): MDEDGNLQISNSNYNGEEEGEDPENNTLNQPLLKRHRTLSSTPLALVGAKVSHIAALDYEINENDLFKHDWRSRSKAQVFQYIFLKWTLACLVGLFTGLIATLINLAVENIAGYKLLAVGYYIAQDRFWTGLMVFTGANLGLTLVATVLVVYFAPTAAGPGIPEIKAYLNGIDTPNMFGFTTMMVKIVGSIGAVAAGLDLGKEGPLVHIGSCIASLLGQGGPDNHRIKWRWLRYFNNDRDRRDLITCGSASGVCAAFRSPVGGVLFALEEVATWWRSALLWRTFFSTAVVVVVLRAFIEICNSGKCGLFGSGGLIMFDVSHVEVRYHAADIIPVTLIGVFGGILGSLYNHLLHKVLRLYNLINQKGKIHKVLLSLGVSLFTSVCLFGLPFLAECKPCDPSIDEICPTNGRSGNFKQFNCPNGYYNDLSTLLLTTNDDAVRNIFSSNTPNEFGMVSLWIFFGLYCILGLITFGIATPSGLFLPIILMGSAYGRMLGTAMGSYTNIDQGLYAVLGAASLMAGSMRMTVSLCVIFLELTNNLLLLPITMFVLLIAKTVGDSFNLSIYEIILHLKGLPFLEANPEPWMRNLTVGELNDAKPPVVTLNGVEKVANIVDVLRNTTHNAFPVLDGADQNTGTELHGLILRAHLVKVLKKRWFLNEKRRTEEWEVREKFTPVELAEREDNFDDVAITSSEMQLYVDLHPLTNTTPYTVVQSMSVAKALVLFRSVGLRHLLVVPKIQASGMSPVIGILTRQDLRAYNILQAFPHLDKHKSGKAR
Kind of experiment: whole-cell patch clamp, HEK293T. Conditions: 5 mM in pipette (cytosolic side); nitrate bath; pH 7.4. The format is cell-based.

As to `Nc1ncnc2c1ncn2[C@@H]1O[C@H](COP(=O)(O)OP(=O)(O)OP(=O)(O)O)[C@@H](O)[C@H]1O` [ATP], the figures for the “inhibition of NO3^- currents at 5 mM” value on AtCLCa ΔN44 mutant and on AtCLCa were “exhibits similar inhibition pattern to wild-type AtCLCa upon ATP addition” and “(E55A/S56A) can completely abolish the inhibitory effect of ATP”, respectively.
